The results in this text go back to patent US11667602B2, “Compounds and their use” (AstraZeneca AB, priority 2020, dated 2023).

In brackets after ≈: the same amount, converted by molar mass. Where two headings read alike, the source gives them in different places.

Series [1] can be described thus: Rat Hepatocyte Stability (Test E). The class given is in vitro ADME. To be noted: rat, hepatocytes, geometric mean if run multiple times. How it is done:
Rat Hepatocyte Stability (Test E)
The assay was conducted according to the Rat Hepatocyte Stability Assay described in pages 170-174 of Wernevik, J. et al., “A Fully Integrated Assay Panel for Early Drug Metabolism and Pharmacokinetics Profiling”, Assay and Drug Development Technologies, 2020, 18(4), 157-179. Data are reported in Table 36 as mean Clint(μl/min/10^6 cells). Where the assay was run multiple times for the same compound, the geometric mean is reported.

A short description of another series: Solubility (Test F). Type of series: physicochemical. Particulars: arithmetic mean if run multiple times. How it is done:
The assay was conducted according to the Solubility Assay described in pages 164-167 of Wernevik, J. et al., “A Fully Integrated Assay Panel for Early Drug Metabolism and Pharmacokinetics Profiling”, Assay and Drug Development Technologies, 2020, 18(4), 157-179. Data are reported in Table 36 as solubility ([…]. Where the assay was run multiple times for the same compound, the arithmetic mean is reported.

Series [2] is described as follows: Human Liver Microsomal Stability (Test C). The class given is in vitro ADME. Particulars: human, liver microsomes. How it is done:
Human Liver Microsomal Stability (Test C)
The assay was conducted according to the Human Liver Microsome Stability Assay described in pages 170-174 of Wernevik, J. et al., “A Fully Integrated Assay Panel for Early Drug Metabolism and Pharmacokinetics Profiling”, Assay and Drug Development Technologies, 2020, 18(4), 157-179. Data are reported in Table 36 as CLint (μl/min/mg protein). Where the assay was run multiple times for the same compound, the arithmetic mean is reported.
(Microsomes from liver hold many membrane-bound enzymes, among them those of drug oxidation.)

In a further series the target is T1, human RXFP1 (Homo sapiens, UniProt Q9HBX9).
T1 sequence (Q9HBX9 1-757): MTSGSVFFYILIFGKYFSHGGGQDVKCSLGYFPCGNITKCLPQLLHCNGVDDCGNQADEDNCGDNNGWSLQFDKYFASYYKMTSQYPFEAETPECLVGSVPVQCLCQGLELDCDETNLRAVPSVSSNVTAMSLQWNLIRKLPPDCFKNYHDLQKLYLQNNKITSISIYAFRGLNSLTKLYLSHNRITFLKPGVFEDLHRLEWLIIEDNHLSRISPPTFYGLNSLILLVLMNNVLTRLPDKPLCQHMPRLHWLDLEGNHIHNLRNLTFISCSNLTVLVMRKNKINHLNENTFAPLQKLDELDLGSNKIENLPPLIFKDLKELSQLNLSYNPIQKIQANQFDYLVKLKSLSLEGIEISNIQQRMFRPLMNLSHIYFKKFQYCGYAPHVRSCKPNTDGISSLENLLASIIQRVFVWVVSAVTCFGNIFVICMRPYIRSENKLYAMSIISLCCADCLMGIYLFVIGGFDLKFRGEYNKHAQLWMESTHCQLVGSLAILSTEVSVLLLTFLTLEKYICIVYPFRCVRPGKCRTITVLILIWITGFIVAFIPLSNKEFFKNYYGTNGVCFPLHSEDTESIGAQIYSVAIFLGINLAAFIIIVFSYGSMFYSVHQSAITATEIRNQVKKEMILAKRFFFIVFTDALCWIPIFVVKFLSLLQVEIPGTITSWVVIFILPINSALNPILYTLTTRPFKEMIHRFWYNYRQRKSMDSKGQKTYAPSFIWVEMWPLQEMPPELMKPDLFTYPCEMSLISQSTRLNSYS
Description: RXFP1 Hu cAMP (Test A). Type of series: cell-based. More on the design: expressed in transfected cells; host or cells: Jump-In T-REx CHO-K1 cells (ThermoFisher), induced with 10 ng/ml doxycycline for 24 h. The procedure, abridged:
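Competitive HTRF cAMP readout (2 h, room temperature) in CHO-K1 cells stably expressing human RXFP1, induced with 10 ng/ml doxycycline for 24 h; IBMX 0.5 mM final.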

The mark [3] stands for this setting: RXFP1 Hu cAMP, read-out: Test A EC50.

Usually hepatocyte CLint stands for a measure of how fast metabolising enzymes remove a compound, apart from limits set by blood flow. The term solubility denotes the concentration that dissolves in the medium under given conditions. Higher therefore signals much dissolved substance. As a reminder, the microsomal CLint is a measure of how fast metabolising enzymes remove a compound, apart from limits set by blood flow. Low readings indicate slow turnover, high ones rapid turnover. In general, EC50 refers to the concentration giving half of the maximal effect. As for `COc1cc(F)c(O[C@H]2CC[C@@](C)(C(=O)O)CC2)cc1C(=O)N[C@@H]1CCC[C@@H]1C(=O)NC(C(C)C)C(C)C` [Example 62], the hepatocyte CLint in series [1] is 55 µL/min/1e6 cells. The compound also had a solubility in “Solubility (Test F)” above 1000 µM. In series [2], this compound registered a microsomal CLint of 94 µL/min/mg. In addition, the “Test A Sinf” value at human RXFP1 (RXFP1 Hu cAMP) is recorded as 93%. Moreover, the EC50 on human RXFP1 (setting [3]) was above 4.2 µM.
For the compound `COc1cc(F)c(O[C@H]2CC[C@@H](C(=O)O)CC2)cc1C(=O)N[C@@H]1[C@H]2CC[C@H](C2)[C@@H]1C(=O)Nc1cc(C(F)(F)F)ccc1Cl` [Example 26], the hepatocyte CLint in series [1] came out at 38 µL/min/1e6 cells. Moreover, the concentration in solution in “Solubility (Test F)” (solubility) came to 250 µM (≈ 157 µg/mL). This compound also gave a microsomal CLint in series [2] of 31 µL/min/mg. Further, the “Test A Sinf” value at human RXFP1 (RXFP1 Hu cAMP) came out at 105%. The EC50 on human RXFP1 (setting [3]) is 0.19 µM.
Consider `COc1cc(F)c(O[C@H]2CC[C@@](C)(C(=O)O)CC2)cc1C(=O)N[C@@H]1CCC[C@@H]1C(=O)N[C@H](C)C(C)C` [Example 60], for which the hepatocyte CLint in series [1] worked out at 11 µL/min/1e6 cells. In “Solubility (Test F)”, this compound registered a solubility above 1000 µM. This compound also registered a microsomal CLint in series [2] of 7 µL/min/mg. Further, the “Test A Sinf” value on human RXFP1 (RXFP1 Hu cAMP) is on record as 105%.
For `COc1cc(F)c(O[C@H]2CC[C@@](C)(C(=O)O)CC2)cc1C(=O)N[C@@H]1CCC[C@@H]1C(=O)NCC(C)(C)C` [Example 57, (1S,4s)-4-(2-Fluoro-4-methoxy-5-(((1R,2S)-2-(neopentylcarbamoyl)cyclopentyl)carbamoyl)phenoxy)-1-methylcyclohexane-1-carboxylic acid], the hepatocyte CLint in series [1] was determined as 11 µL/min/1e6 cells. In the series “Solubility (Test F)”, this compound returned a solubility above 1000 µM. In addition, the microsomal CLint in series [2] came out at 4.9 µL/min/mg. Besides, on human RXFP1 (RXFP1 Hu cAMP), the “Test A Sinf” value is given as 99%. Also, the EC50 on human RXFP1 (setting [3]) amounted to 0.66 µM.
In the same order, the values of `COc1cc(F)c(O[C@H]2CC[C@@](C)(C(=O)O)CC2)cc1C(=O)N[C@@H]1CCC[C@@H]1C(=O)N[C@@H](C)C(C)(C)C` [Example 61] are 13 µL/min/1e6 cells, above 1000 µM, 7.4 µL/min/mg, 96% and 15 µM.
In the same order, the values of `COc1cc(F)c(O[C@H]2CC[C@@](C)(C(=O)O)CC2)cc1C(=O)N[C@@H]1CCC[C@@H]1C(=O)N[C@@H](C)C(C)C` [Example 55, (1S,4s)-4-(2-Fluoro-4-methoxy-5-(((1R,2S)-2-(((S)-3-methylbutan-2-yl)carbamoyl)cyclopentyl)carbamoyl)phenoxy)-1-methylcyclohexane-1-carboxylic acid] are 16 µL/min/1e6 cells, above 1000 µM, below 3 µL/min/mg, 100% and above 8.4 µM.
In series [1], `CC1(CNC(=O)[C@H]2[C@@H]3CC[C@@H](C3)[C@H]2NC(=O)c2cc(O[C@H]3CC[C@@](C)(C(=O)O)CC3)c(F)cc2OCF)CCC1` [Example 4, (1S,4s)-4-(2-Fluoro-4-(fluoromethoxy)-5-(((1S,2R,3S,4R)-3-(((1-methylcyclobutyl)methyl)carbamoyl)bicyclo[2.2.1]heptan-2-yl)carbamoyl)phenoxy)-1-methylcyclohexane-1-carboxylic acid] gave a hepatocyte CLint of 6.9 µL/min/1e6 cells. This compound also had a solubility in the series “Solubility (Test F)” above 1000 µM. The compound further gave a microsomal CLint in series [2] of 36 µL/min/mg. Besides, on human RXFP1 (RXFP1 Hu cAMP), the “Test A Sinf” value was determined as 103%. On human RXFP1 (Test A EC50, RXFP1 Hu cAMP), this compound registered an EC50 of 0.0047 µM.
In series [1], `COc1cc(F)c(O[C@H]2CC[C@@](C)(C(=O)O)CC2)cc1C(=O)N[C@@H]1CCC[C@@H]1C(=O)NCC1(C)CCCCC1` [Example 64] gave a hepatocyte CLint of 67 µL/min/1e6 cells. The amount in solution in the series “Solubility (Test F)” (solubility) came to 870 µM (≈ 476 µg/mL). In series [2], the microsomal CLint was 74 µL/min/mg. Besides, the “Test A Sinf” value on human RXFP1 (RXFP1 Hu cAMP) was 107%.
As for `COc1cc(F)c(O[C@H]2CC[C@@](C)(C(=O)O)CC2)cc1C(=O)N[C@@H]1CCC[C@@H]1C(=O)NCC(C)C` [Example 66], the hepatocyte CLint in series [1] is 12 µL/min/1e6 cells. Besides, the solubility in “Solubility (Test F)” is above 1000 µM. The microsomal CLint in series [2] is below 3 µL/min/mg. Also, the “Test A Sinf” value at human RXFP1 (RXFP1 Hu cAMP) came out at 101%.
In turn, `COc1cc(F)c(O[C@H]2CC[C@@](C)(C(N)=O)CC2)cc1C(=O)N[C@@H]1[C@H]2CC[C@H](C2)[C@@H]1C(=O)NCC(C)(C)C` [Example 53, (1R,2S,3R,4S)-3-(5-(((1s,4S)-4-Carbamoyl-4-methylcyclohexyl)oxy)-4-fluoro-2-methoxybenzamido)-N-neopentylbicyclo[2.2.1]heptane-2-carboxamide] showed a hepatocyte CLint in series [1] of 150 µL/min/1e6 cells. In addition, the solubility in the series “Solubility (Test F)” is 39 µM (≈ 20.7 µg/mL). This compound also displayed a microsomal CLint in series [2] of 130 µL/min/mg. Moreover, on human RXFP1 (RXFP1 Hu cAMP), the “Test A Sinf” value turned out to be 122%. Further, the EC50 on human RXFP1 (setting [3]) is 0.16 µM.
`COc1cc(F)c(-c2ccc(C(=O)O)c(C)c2)cc1C(=O)N[C@@H]1[C@H]2CC[C@H](C2)[C@@H]1C(=O)Nc1cccc(S(=O)(=O)C(F)(F)F)c1` [Example 246] had an intrinsic metabolic clearance (hepatocyte CLint) in series [1] of 16 µL/min/1e6 cells. Also, the solubility in the series “Solubility (Test F)” was found to be 860 µM (≈ 558 µg/mL). In series [2], this compound showed a microsomal CLint of 20 µL/min/mg. Also, the “Test A Sinf” value at human RXFP1 (RXFP1 Hu cAMP) stood at 85%.
`COc1cc(F)c(O[C@H]2CC[C@@](C)(C(=O)O)CC2)cc1C(=O)N[C@@H]1CCC[C@@H]1C(=O)N[C@@H](C)C1(C)CC1` (racemic) [Example 63] displayed a hepatocyte CLint in series [1] of 19 µL/min/1e6 cells. The compound further displayed a solubility in “Solubility (Test F)” of 610 µM (≈ 316 µg/mL). In series [2], this compound showed a microsomal CLint of 11 µL/min/mg. The EC50 at human RXFP1 (setting [3]) is above 50 µM.
For the compound `COc1cc(F)c(-c2ccccc2C(=O)O)cc1C(=O)N[C@H]1[C@@H](C(=O)Nc2cccc(S(=O)(=O)C(F)(F)F)c2)[C@@H]2C=C[C@H]1C2` (racemic) [Example 273, rac-2′-Fluoro-4′-methoxy-5′-(((1R,2R,3S,4S)-3-((3-((trifluoromethyl)sulfonyl)phenyl)carbamoyl)bicyclo[2.2.1]hept-5-en-2-yl)carbamoyl)-[1,1′-biphenyl]-2-carboxylic acid], the EC50 at human RXFP1 (setting [3]) was above 40 µM.
In the case of `COc1cc(F)c(O[C@H]2CC[C@@](C)(C(=O)O)CC2)cc1C(=O)N[C@@H]1CCN(C(C)=O)C[C@@H]1C(=O)Nc1cccc(S(=O)(=O)C(F)(F)F)c1` (racemic) [Example 487, (1R,4s)-4-(5-(((3RS,4SR)-1-Acetyl-3-((3-((trifluoromethyl)sulfonyl)phenyl)carbamoyl)piperidin-4-yl)carbamoyl)-2-fluoro-4-methoxyphenoxy)-1-methylcyclohexane-1-carboxylic acid], at human RXFP1 (setting [3]), the EC50 was above 40 µM.
Regarding `COc1cc(F)c(-c2ccc(C(=O)O)c(N(C)C)c2)cc1C(=O)N[C@@H]1[C@H]2CC[C@H](C2)[C@@H]1C(=O)Nc1cccc(S(=O)(=O)C(F)(F)F)c1` [Example 239], the “Test A Sinf” value at human RXFP1 (RXFP1 Hu cAMP) is 100%. Besides, the EC50 at human RXFP1 (setting [3]) came to 0.13 µM.
Consider `COc1cc(F)c(O[C@H]2CC[C@@](C)(C(=O)O)CC2)cc1C(=O)N[C@@H]1[C@H]2CC[C@H](C2)[C@@H]1C(=O)NC(C)(C)C(F)(F)F` [Example 603], for which, on human RXFP1 (RXFP1 Hu cAMP), the “Test A Sinf” value turned out to be 99%. Besides, on human RXFP1 (setting [3]), the EC50 turned out to be 0.094 µM.
`COc1cc(F)c(O[C@H]2CC[C@@](C)(C(=O)O)CC2)cc1C(=O)N[C@@H]1[C@H]2CC[C@H](C2)[C@@H]1C(=O)NCC1(C(F)(F)F)CCC1` [Example 613]: the “Test A Sinf” value on human RXFP1 (RXFP1 Hu cAMP) is recorded as 109%. At human RXFP1 (setting [3]), the EC50 was 0.076 µM.
Regarding `COc1cc(C#N)c(O[C@H]2CC[C@@](C)(C(=O)O)CC2)cc1C(=O)N[C@@H]1[C@H]2CC[C@H](C2)[C@@H]1C(=O)NC1CCCCC1` [Example 121], the “Test A Sinf” value on human RXFP1 (RXFP1 Hu cAMP) is listed as 98%. Further, the EC50 on human RXFP1 (setting [3]) worked out at 0.13 µM.
